One experiment relates to HCT116 spheroids. Put plainly: Tumor spheroid growth, live-cell imaging (Example C). It is filed as cell-based. Particulars: ASS1-high HCT116 spheroids, 0-20 μM, up to 120 hours. How it is done:
(§1) The growth of tumor spheroids was evaluated following treatment of cells with Compound 1, Compound 2. Briefly, HT29 or HCT116 cells were seeded at 5,000 cells/well in ultra-low attachment round-bottom 96-well plates, in 100 μL SILAC DMEM Flex media without phenol red, supplemented with 10% fetal bovine serum (FBS), 1 g/L glucose, 2 mM glutamine, 220 μM lysine, and 64 μM arginine. The plates were centrifuged for 10 minutes at 125×g and put in a humidified incubator at 37° C. for 3 days before the onset of the experiment to allow spheroids to form.
(§2) Three days after seeding, 0-20 μM Compound 1, 0-20 μM Compound 2, or […] vehicle control (0.1% DMSO), were added together with the Nuclear-ID Red DNA Stain (1:100,000; ENZO Life Sciences) to detect live cells. Plates were placed in live-cell imaging and analysis platform (e.g., IncuCyte ZOOM®; 15 Essenbio) set up in a humidified incubator at 37° C. and scanned every 4 hours for up to 120 hours, at 10× magnification, to determine the relative spheroid size and cell death. Experiments were performed in quadruplicate and analyzed using live-cell imaging and analysis software (e.g., IncuCyte ZOOM® 2018A software; Essenbio).

In the next experiment the test system is HT29 spheroids. The description is as above. To be noted: ASS1-low HT29 spheroids, 0-20 μM, up to 120 hours. It counts as cell-based. How it is done: as §1, §2
The subject of the next experiment is 769-P (ASS1high) cells. As to the kind of experiment: Relative cell viability, Nuclear-ID Red / Annexin V staining (Example E). It is filed as cell-based. To be noted: 16 μM arginine, 4 days. How it is done:
(§3) To assess the effectiveness of Compound 1 and Compound 2: A^498 (ASS1low) and 769-P (ASS1high) cells were seeded at a density of 2000 cells/well in 96-well plates in RPMI medium with 16 μM arginine, 1 g/L glucose, 2 mM L-glutamine, and 10% FCS and allowed to adhere overnight.
(§4) Cells were then treated with increasing amounts of the indicated compounds for 4 days. Afterward, cell viability was determined by staining the nuclei of the living cells with NUCLEAR-IDR Red DNA stain (Enzo Life Sciences) and the apoptotic/death cells with Annexin V CF488A (Biotium) and scanning the plates with an IncuCyte S3 instrument. Viable cells were classified as Nuclear-ID Red high and Annexin V CF488A low and relative viability was expressed as a percentage of the total number of cells/well.

The test system of a further experiment is A498 (ASS1low) cells. The description is as above. It is filed as cell-based. To be noted: 16 μM arginine, 4 days. How it is done:
as §3, §4

Experiment [1] deals with HCT116 cells. As to the kind of experiment: EdU incorporation (Example I). It counts as cell-based. Particulars: HCT116 cells (high ASS1), arginine 6.25-100 μM. As to the method: (§5) EdU incorporation levels of cancer cell lines was evaluated following treatment with compound 1, compound 2, compound 3, or vehicle control (0.1% DMSO). Briefly, HT29 and HCT116 cells were seeded at 2,500 cells/well in 96 well plates in 100 μl SILAC DMEM flex media without phenol red, supplemented with 10% dialyzed fetal bovine serum (dFBS), 1 g/l glucose, 2 mM glutamine, 220 μM Lysine, and various concentrations of arginine (6.25 μM, 12.5 μM, 25 μM, and 100 μM). The cells were put in a humidified incubator at 37° C. for 24 hours. The next day compounds were added to the cells at a concentration of […]. At day 3, cells were incubated with 10 μM EdU for 24 hours. The next day EdU positive cells were labeled using the Click-it reaction cocktail per manufacturing protocol using Amplex UltraRed Dye. Fluorescence was measured using a microplate reader using filter sets appropriate for Amplex™ UntraRed reagent (ex 568 nm and em 585 nm).

For experiment [2], the system named is HT29 cells. Put plainly: EdU incorporation (Example I). It counts as cell-based. Particulars: HT29 cells (low ASS1), arginine 6.25-100 μM. As to the method: as §5
For experiment [3], the system named is Renca, CT26, MC38, B16F10 tumor cells. As to the kind of experiment: In vivo tumor models, tumor volume (Example J). Also noted: species or system BALB/c or C57BL/6 mice. Particulars: for inhibition in tumor volume compared to control: Compound 1: 30 mg/kg p.o. BID, Compound 2: 20 mg/kg p.o. BID, endpoint day 11-20 depending on model. How it is done: Effect of GCN2 inhibition on in vivo xenograft tumor models of various ASS1 low cancer models was evaluated following treatment with compound 1, compound 2, or vehicle control. Briefly, 1,000,000 tumor cells with a total volume of 100 μl were injected into the rear flank region of 6-8 week old BALB/c or C57BL/6 female mice. The following tumor cell lines were tested: renica (renal adenocarcinoma), CT26 (colon cancer), MC 38 (colon adenocarcinoma), B16F10 (melanoma) When tumors reached a size of approximately […], mice were treated orally (PBS, 10 μl/g, i.p., twice weekly (BIW); Compound 1: 30 mg/kg, 10 μl/g, p.o., twice daily (BID); or Compound 2: 20 mg/kg, 10 μl/g, p.o., BID). Tumor volumes were measured every 3-4 days. Endpoint measurements as presented were measured at day 20 (Renca), day 14 (CT26), day 17 (MC38), and day 11 (B16F10).

Experiment [4] has as its system HCT116 cells. As to the kind of experiment: Growth of colonies/spheroids in soft agar, 5 days (Example G). It counts as cell-based. Particulars: Homo sapiens, HCT-116, 120 h, HCT116 cells (ASS1 high), 64 μM arginine, read-out: IC50, growth inhibition. As to the method: (§6) The growth of tumor spheroids was evaluated following treatment with Compound 2. Briefly, HT29 cells were seeded at 2,000 cells/well and HCT116 cells were seeded at 1,000 cells/well in ultra-low attachment round bottom 96-well plates in soft agar with 100 μl SILAC DMEM flex media without phenol red, supplemented with 10% Dialyzed fetal bovine serum (dFBS), 1 g/l glucose, 2 mM glutamine, 220 μM Lysine, and 64 μM arginine. Various concentrations of compound 2 (1.37 nM, 4.11 nM, 12.3 nM, 37 nM, 111 nM, 333 nM, and 1000 nM) were added. Plates were placed in a humidified incubator at 37° C. and incubated for 5 days, allowing colonies to form. At endpoint, images were taken by light microscopy (3 images per well) and analyzed using ImageJ software.

In experiment [5] the test system is HT29 cells. Described as above. It is filed as cell-based. To be noted: HT29 cells (ASS1 low), 64 μM arginine, read-out: IC50, growth inhibition. How it is done: as §6
The subject of another experiment is A498 cells. As to the kind of experiment: Cell viability, ATPlite luminescence (Example H). It is filed as cell-based. Particulars: A498 cells (low ASS1). As to the method: The viability of cancer cell lines was evaluated following treatment with compound 2. Briefly, 769P and A498 cells were seeded at 100-6,400 cells/well in 96 well plates in 100 μl SILAC DMEM flex media without phenol red, supplemented with 10% dialyzed fetal bovine serum (dFBS), 1 g/l glucose, 2 mM glutamine, 220 μM Lysine, and 64 μM arginine. The cells were put in a humidified incubator at 37° C. for 24 hours. The next day compounds were added at various concentrations. At the end of the experiment, ATPlite 1 Step™ (Perkin Elmer) solution was added to each well and shaken for 2 minutes. After incubation of 10 min in the dark, luminescence was recorded on a Envision Multimode Reader to determine cell viability.

Read-outs that look alike come from different tables or passages of the source.

Data on three molecules can be found in patent publication US20250000859A1, “USE OF GCN2 INHIBITORS IN TREATING CANCER” (Alesta Therapeutics BV, priority 2021, published 2025).

For orientation: IC50 means the point on the concentration scale where inhibition reaches its midpoint.

For `COc1ncc(Cl)cc1S(=O)(=O)Nc1ccc(F)c(-c2ccc3nc(N)ncc3c2)c1F` [Compound 1], the spheroid growth entry with HCT116 spheroids is listed as “does not reduce spheroid growth”. Moreover, the “spheroid growth compared to DMSO-treated spheroids” value in the experiment with HT29 spheroids is reported as “significantly reduces spheroid growth in a dose-dependent manner”. Besides, the relative cell viability result is given as “did not significantly relative cell viability” with 769-P (ASS1high) cells and “significantly reduces relative cell viability in a dose-dependent manner” with A498 (ASS1low) cells. Besides, the EdU labeling result in the experiment with HCT116 cells [1] is given as “have a smaller effect on EdU labeling”; in the experiment on HT29 cells [2], “cause significantly higher levels of EdU labeling”. Further, the “reduction in tumor volume compared to control” value in experiment [3] (30 mg/kg p.o. BID, Renca, CT26, MC38, B16F10, FIG. 9A) was 60-70%. In experiment [3], the “inhibition in tumor volume compared to control” value is recorded as “caused a significant inhibition in tumor volume compared to control”.

Regarding `Nc1ncc2cc(-c3c(F)ccc(NS(=O)(=O)c4cc(Cl)ccc4Cl)c3F)ccc2n1` [Compound 2], the IC50 in the experiment on HCT116 cells [4] was 1330 nM; in the experiment on HT29 cells [5], 51.4 nM; with HT29 cells [5] (Homo sapiens, HT-29, 120 h), 52.4 nM. Also, in the experiment on HCT116 spheroids, the spheroid growth result is recorded as “does not reduce spheroid growth”. Further, in the experiment with HT29 spheroids, the “spheroid growth compared to DMSO-treated spheroids” value is listed as “significantly reduces spheroid growth in a dose-dependent manner”. In addition, the figures for the relative cell viability result with 769-P (ASS1high) cells and with A498 (ASS1low) cells were “did not significantly relative cell viability” and “significantly reduces relative cell viability in a dose-dependent manner”, respectively. Further, in the experiment with A498 cells, the “cell death (percent viability vs untreated cells)” value was “resulted in a significant level of cell death”. Besides, the EdU labeling entry is “have a smaller effect on EdU labeling” in the experiment on HCT116 cells [1] and “cause significantly higher levels of EdU labeling” in the experiment with HT29 cells [2]. The “inhibition in tumor volume compared to control” value in experiment [3] is on record as “caused a significant inhibition in tumor volume compared to control”.

Take `Nc1ncc(C#Cc2c(F)ccc(NS(=O)(=O)c3cc(Cl)cc(CO)c3Cl)c2F)cn1` [Compound 3]: the EdU labeling result is given as “have a smaller effect on EdU labeling” with HCT116 cells [1] and “cause significantly higher levels of EdU labeling” with HT29 cells [2].
